The nature of series [1]: Measurement of active ingredient retention rate after 7 days open storage at 23° C. or 50° C. It counts as physicochemical. Particulars: for residual active ingredient after storage (in words): after 7 days storage at either 23° C. or 50° C. How it is done: The vial containing the sample was stored, without a lid attached, in an environment at either 23° C. or 50° C. for a period of 7 days. Following this storage period, the support ratio (%) of 2-hexenal was determined in the same manner as that described above in [Evaluation 1a].
Based on the measurement results, the 2-hexenal retention rates following storage at 23° C. and at 50° C. were each calculated using the formula below. In the formula, the [initial 2-hexenal content] represents the value determined in the above “Measurement of 2-Hexenal Support Ratio”.
2-Hexenal retention rate (%)=2-hexenal support ratio (%) after storage/initial 2-hexenal support ratio (%)×100
The vial containing the sample was stored in an environment at either 23° C. or 50° C. for a period of 7 days. Following this storage period, the support ratio (%) of 2-hexenal was determined in the same manner as that described above in [Evaluation 2a].
Based on the measurement result, the 2-hexenal retention rate (%) was determined in the same manner as that described above in [Evaluation 1b].
The vial containing the sample was stored in an environment at either 23° C. or 50° C. for a period of 7 days. Following this storage period, the sample mass (g) remaining in the vial was measured, and this value was deemed the 2-hexenal support ratio (%) after storage.
With the exception of using 3-hepten-2-one instead of 2-hexenal as the active ingredient, evaluations were conducted in the same manner as Example 1.
An agent prepared by mixing trioxane and 3-hepten-2-one (in a mass ratio of 100:0.35) and then freeze drying the mixture was used as a heat tolerance-inducing agent, and evaluations were conducted in the same manner as Example 11.
Example 15 used 3-hepten-2-one alone as a heat tolerance-inducing agent. Evaluations were conducted in the same manner as Example 12.

Series [2] can be described thus: Measurement of active ingredient support ratio (solvent extraction / gas chromatography). It is filed as physicochemical. How it is done:
First, 5 g of a mixed solvent of chloroform:methanol=9:1 (volume ratio) was added to the vial containing the sample, and the mixture was stirred for one minute to extract the supported 2-hexenal. Hexadecane was then added as an internal standard, and the resulting mixture was filtered. The thus obtained filtrate (the extract solution containing the internal standard) was analyzed by gas chromatography, and the amount (mg) of supported 2-hexenal was calculated using a calibration curve prepared in advance using hexadecane as an internal standard. The support ratio (%) of 2-hexenal within 100% of the sample was determined from the calculated supported amount (mg) and the mass of the sample inside the vial.
With the exception that chloroform was added to the vial containing the sample to dissolve the sample, hexadecane was added to the resulting solution as an internal standard, and analysis was then conducted by gas chromatography (7890A apparatus manufactured by Agilent Technologies, Inc.), the support ratio (%) of 2-hexenal within 100% of the sample was determined in the same manner as that described above in [Evaluation 1a].
In Example 12, because 2-hexenal was used alone, the initial 2-hexenal support ratio was deemed to be 100%.
With the exception of using 3-hepten-2-one instead of 2-hexenal as the active ingredient, evaluations were conducted in the same manner as Example 1. […]

Setting [3] is: sample for 23° C. storage, before storage.
The mark [4] stands for this setting: sample for 50° C. storage, before storage.

Experimental findings from US20240260573A1, “HEAT TOLERANCE-INDUCING AGENT FOR PLANTS AND METHOD FOR INDUCING HEAT TOLERANCE OF PLANTS” (AGC Inc., priority 2021, published 2024) are described below.

As to `CCCC=CC(C)=O` [Example 15, 3-hepten-2-one], the “3-hepten-2-one support amount, Storage at 23° C., After 7 days” value in series [1] (23° C., 7 days) is 0 mg. Also, in series [1] (50° C., 7 days), the “3-hepten-2-one support amount, Storage at 50° C., After 7 days” value worked out at 0 mg. Further, the “3-hepten-2-one retention rate 23° C.” value in series [1] (after 7 days storage at 23° C.) is listed as 0%. For the same molecule, the “3-hepten-2-one retention rate 50° C.” value in series [1] (after 7 days storage at 50° C.) is given as 0%. The “residual active ingredient after storage (in words)” value in series [1] was “no residual active ingredient was retained”. Also, the “3-hepten-2-one support amount, Storage at 23° C., Initial” value in series [1] (setting [3]) is on record as 11.5 mg. In addition, the “3-hepten-2-one support amount, Storage at 50° C., Initial” value in series [1] (setting [4]) was found to be 10.7 mg. Also, the 3-hepten-2-one support ratio in series [2] (3-hepten-2-one used alone, evaluated as Example 12 (deemed 100%)) was found to be 100%.
With `CCCC=CC=O` [Example 12, 2-hexenal], the “2-hexenal support amount, Storage at 23° C., After 7 days” value in series [1] (23° C., 7 days, vial without lid) came out at 0 mg. Also, the “2-hexenal support amount, Storage at 50° C., After 7 days” value in series [1] (50° C., 7 days, vial without lid) is 0 mg. The “2-hexenal retention rate 23° C.” value in series [1] (after 7 days storage at 23° C.) amounted to 0%. For the same molecule, the “2-hexenal retention rate 50° C.” value in series [1] (after 7 days storage at 50° C.) worked out at 0%. For the same molecule, the “residual active ingredient after storage (in words)” value in series [1] is reported as “no residual active ingredient was retained”. Besides, in series [1] (setting [3]), the “2-hexenal support amount, Storage at 23° C., Initial” value is reported as 13 mg. In addition, the “2-hexenal support amount, Storage at 50° C., Initial” value in series [1] (setting [4]) is on record as 12.5 mg. For the same molecule, in series [2] (2-hexenal used alone, initial support ratio deemed to be 100%), the 2-hexenal support ratio is listed as 100%.
